From patent US9328369B2, “Process for production of useful substance, and surfactant for use in the process” (priority 2009, dated 2016)

Assays:
Escherichia coli(δ) [1] = test: Production by secretion in microbial culture system, cellulase expressing strain (Table 5); assay type: cell-based; parameters: key to Turbidity: (measured turbidity of diluted culture − blank) × dilution rate; conditions: for Dried cell density: obtained from turbidity; for Quantitative value of produced recombinant protein: SDS-PAGE
Description: A bglC gene of Bacillus licheniformis was amplified by the PCR method using primers 9 and 10 (Table 4). After being treated with restriction enzymes NcoI and BamHI, a PCR amplified fragment was bound to an NcoI restriction enzyme site and a BamHI restriction enzyme site of a pET-22b plasmid (product of Novagen). Then, the plasmid was transformed into a BL21 (DE3) Escherichia coli strain (product of Novagen) to form Escherichia coli […] that expresses cellulase.
Overnight cultures (1 ml) of Escherichia coli (δ) obtained in Production Example 4 and Escherichia coli (ε) obtained in Production Example 5 were respectively prepared as Comparative Example 2 and Comparative Example 4. An amount of 0.5 ml of each was inoculated in 5 ml of an LB culture solution (containing 100 mg/L of ampicillin) and was shake-cultured at 30° C. for 3 hours. In this manner, pre-culture solutions were prepared. The pre-culture solutions were each inoculated in 50 mL of a culture solution (1.2 g of yeast extract (Nihon Pharmaceutical Co., Ltd.), 0.6 g of polypeptone (Nihon Pharmaceutical Co., Ltd.), 0.47 g of dipotassium phosphate, 0.11 g of monopotassium phosphate, 0.35 g of ammonium sulfate, 0.66 g of disodium phosphate 12-hydrate, 0.02 g of sodium citrate dihydrate, 0.2 g of glycerol, 1.5 g of lactalbumin hydrolysate, 0.3 g of a defoaming agent (Shin-Etsu Chemical Co., Ltd., “KM-70”), 1 mM magnesium sulfate, trace metal solution (18.9 μg of calcium chloride, 500 μg of iron chloride (III), 9.0 μg of zinc sulfate heptahydrate, 5.1 μg of copper sulfate, 6.7 μg of manganese chloride tetrahydrate, 4.9 μg of cobalt chloride, 200 μg of ethylene-diamine-tetraacetic acid tetrasodium salt), 100 mg/L ampicillin). Culturing was initiated with use of a microbial culture system (ABLE Corporation, product name “BioJr. 8”), while the pH value and the temperature were maintained at 6.8 and 30° C. After the culturing was initiated, 0.15 mL of 1M IPTG was added. After 14 hours from the initiation of culturing, instillation of a glycerin/protein solution (50% of glycerin, 50 g/L of lactalbumin hydrolysate, a 33 g/L defoaming agent (Shin-Etsu Chemical Co., Ltd., “KM-70”), 100 mg/L ampicillin) was started. The culturing was terminated after 48 hours from the initiation and the culture solution was recovered. The whole protein in the culture solution was analyzed by SDS-PAGE. Based on the obtained amount of the protein band, the recombinant protein was quantified.
The dried cell density at the termination of the culturing was determined by the following processes (1) to (5):
The dried cell density was determined by applying the measuring results in the process (5) and the process (1) and the volume (L) of the culture solution used in the process (2) to the following formula: Dried cell density (g/L)=([measuring result in process (5)]−[measuring result in process (1)])/0.1.
Performance of this processes for several times clarified the proportional relationship between the turbidity of the culture solution and the dried cell density. Therefore, the dried cell density was obtained from the measured turbidity in each of Comparative Examples 2 to 4 and Examples 2 to 14.
The turbidity of a culture solution that is same as the culture solution used in the measurement of the dried cell density was measured using a turbidimeter (Shimadzu Corporation, UV-1700) and 1 ml of quarts cell.
For measurement, the culture solution was diluted in saline to have an appropriate absorbance. The absorbance of the same culture solution (but not containing bacteria) diluted at the same dilution as above was set as a blank. The turbidity of the culture solution was calculated by using the following formula: Turbidity of culture solution=[(measured turbidity of diluted culture solution)−(measured turbidity of blank)]×dilution rate.
The dried cell density and the turbidity of the culture solution were plotted to construct a graph in FIG. 3. […]

Escherichia coli(δ) [2] = test: as above; assay type: cell-based; conditions: SDS-PAGE
[3] = Example 13, surfactant 0.1 wt %
[4] = Examples 2-11, surfactant 1 wt %, at termination of culturing
[5] = Examples 2-11, surfactant 1 wt %, culturing terminated after 48 hours
[6] = Examples 2-11, surfactant 1 wt %, supernatant of culture solution
[7] = Comparative Example 3, surfactant 1 wt %, added earlier than in Example 2

Compound	Turbidity (Escherichia coli(δ) [1]; [3])	Dried cell density (Escherichia coli(δ) [1]; [3])	Turbidity (Escherichia coli(δ) [1]; Example 14, surfactant 5 wt %)	Dried cell density (Escherichia coli(δ) [1]; Example 14, surfactant 5 wt %)	Dried cell density (Escherichia coli(δ) [1]; [4])	Turbidity (Escherichia coli(δ) [1]; [5])	Quantitative value of produced recombinant protein (Escherichia coli(δ) [2]; Example 13, surfactant 0.1 wt %, supernatant)	Quantitative value of produced recombinant protein (Escherichia coli(δ) [2]; Example 14, surfactant 5 wt %, supernatant)	Quantitative value of produced recombinant protein (Escherichia coli(δ) [2]; [6])	Turbidity (Escherichia coli(δ) [1]; [7])	Dried cell density (Escherichia coli(δ) [1]; [7])	Quantitative value of produced recombinant protein (Escherichia coli(δ) [1]; Comparative Example 3, surfactant 1 wt %, added earlier than in Example 2, whole protein in culture solution)	Quantitative value of produced recombinant protein (Escherichia coli(δ) [1]; [6])
Cured palm oil fatty acid amidopropyl dimethyl aminoacetate betaine [A-6]	75.2	21.1 g/L	52.1	14.6 g/L	19.7 g/L	70.3	1.82 g/L	1.53 g/L	2.35 g/L				
CCCCCCCCCCCCCCCC[N+](C)(C)C.[Cl-] [A-14, Cetyl trimethyl ammonium chloride]					1.52 g/L	5.43				1.07	0.3 g/L	<0.05 g/L	0.06 g/L
Polyoxyethylene(3 mol)tridecyl ether sodium acetate [A-1]					12.1 g/L	43.2			1.01 g/L				
Sodium cocaminopropionate [A-7]					22.1 g/L	78.9			2.24 g/L				
